Laboratory results published in US20160250245A1, “Methods and Pharmaceutical Composition for the Treatment of Polyomavirus Infections” (INSERM (INSTITUT NATIONAL DE LA SANTÉ ET DE LA RECHERCHE …, priority 2013, published 2016).
pIC50: −log10 of the molar value.

Columns and labels:
T antigen = assay: Immunofluorescence of T antigen expression in infected RPTEC cells; type: cell-based, BK virus; conditions: 5 days of treatment
Method: (§1) For each assay, one cell aliquot containing 2×10^6 cells was thawed and cells were cultured for six days in one 75 cm^2 culture flask. Cells were then trypsinized, washed, resuspended and seeded at 5×10^4 cells/well in 1 ml medium in flat bottom 24-well collagen-coated microplates. After 48 h incubation, medium was replaced with fresh REBM base medium without grown factors and supplemented with inactivated fetal bovine serum (FBS Brazilian origin, Lonza) and penicillin-streptomycin 10000 U/μg to a final concentration of 2% and 1% respectively. 48 h later, cells at 95% confluence were infected with 1×10^9 genomes per well. After 4 h incubation (37° C., 5% CO2), medium was removed and replaced with 1 ml of fresh medium without grown factors after two washes with and without gemcitabine or cidofovir at the indicated concentrations. 72 h later, at day 3 of treatment, supernatants were harvested and frozen at −80° C. and medium was replaced with fresh medium without grown factors and with the indicated concentrations of gemcitabine or cidofovir. After 48 h incubation, at day 5 of treatment, cell culture supernatants were harvested and frozen at −80° C. […]

VP-1 = assay: Immunofluorescence of VP-1 expression in infected RPTEC cells; type: cell-based, BK virus; conditions: 5 days of treatment
Method: as §1

BKV (Dunlop strain) = assay: BKV replication in RPTEC primary cells, extracellular BKV DNA load by qPCR; type: cell-based, BK virus
Method: (§2) For each assay, one cell aliquot containing 2×10^6 cells was thawed and cells were cultured for six days in one 75 cm^2 culture flask. Cells were then trypsinized, washed, resuspended and seeded at 5×10^4 cells/well in 1 ml medium in flat bottom 24-well collagen-coated microplates. After 48 h incubation, medium was replaced with fresh REBM base medium without grown factors and supplemented with inactivated fetal bovine serum (FBS Brazilian origin, Lonza) and penicillin-streptomycin 10000 U/μg to a final concentration of 2% and 1% respectively. 48 h later, cells at 95% confluence were infected with 1×10^9 genomes per well. After 4 h incubation (37° C., 5% CO2), medium was removed and replaced with 1 ml of fresh medium without grown factors after two washes with and without gemcitabine or cidofovir at the indicated concentrations. 72 h later, at day 3 of treatment, supernatants were harvested and frozen at −80° C. and medium was replaced with fresh medium without grown factors and with the indicated concentrations of gemcitabine or cidofovir. After 48 h incubation, at day 5 of treatment, cell culture supernatants were harvested and frozen at −80° C.
(§3) Extracellular DNA was extracted from 100 μL frozen supernatants using the automated nucleic acids extractor Nuclisens Easymag (BioMérieux, Marcy l'Etoile, France) following the manufacturer's Generic 2.0.1 procedure. Extracts were resuspended in a final volume of 25 μL buffer 3.
(§4) To quantify extracellular BKV DNA load, a quantitative PCR (qPCR) was done using the following primers (Eurofins MWG Operon) and probe (Applied Biosystem, UK): […]
(§5) Reactions were performed in a total volume of 25 μl with 5 μL of DNA extract, […] TaqMan Universal PCR Master Mix (Applied Biosystems, Hoffmann La Roche, Meylan, France), 6.5 μL H2O, 2.5 μL of each primer at 30 μM and 1 μL of probe at 10 μM.
(§6) Amplification was performed using the Rotor-Gene 6000 (Corbett Life Science) with the following PCR program: 50° C., 2 min; denaturation at 95° C., 10 min; and 45 cycles of 95° C., 15 sec; 60° C., 60 sec. Quantification was calculated with an external calibration curve using BKV plasmid constructs.

BKV (Dunlop) = assay: BKV replication in Vero cell line, extracellular BKV DNA load by qPCR; type: cell-based, BK virus; conditions: Vero cells
Method: (§7) For each assay, one cell aliquot was thawed and cells cultured for three days in one 25 cm^2 culture flask. Cells were then trypsinized, washed, resuspended and seeded at 1×10^4 cells/well in […] in flat bottom 96-well microplates. After 24 h incubation, cells at 75% confluence were infected with 1×10^9 genomes per well in BK medium (199 medium with 2% FBS, 2% HEPES, 1% penicillin-streptomycin 10000 U/μg final concentration). After 4 h incubation (37° C., 5% CO2), medium was removed and replaced with 200 μL of fresh BK medium after four washes. 72 h later, medium was replaced with fresh BK medium with or without gemcitabine at the indicated final concentrations. After 48 h incubation, cell culture supernatants were harvested and frozen at −80° C.
as §3, §4, §5, §6

RPTEC primary cells = assay: Cytotoxicity / cell growth by LDH activity in RPTEC primary cells; type: cell-based, human
Method: as §2
(§8) Cytotoxicity was analyzed by two colorimetric assays using the “Cytotoxicity Detection Kit (LDH)” and “Cell proliferation ELISA, BrdU” (Roche Diagnostics, Meylan, France).
The quantity of LDH was measured in cell culture supernatants and cells from every wells used for the quantification of virus replication including infected and non-infected wells and in presence or not of gemcitabine at the end of the test period according to the manufacturer's protocol. Absorbance at 492 nm (sample) and at 620 nm (background) was recorded 30 min after addition of the reaction mixture. Medium alone served as blank. Measure of LDH activity in culture supernatants was used to monitoring cell lysis and the activity in cell lysates to monitoring cell viability and mass at 72 and 120 h p.i

Vero cell line = type: cell-based, Cercopithecus aethiops; conditions: Vero cell culture system
Method: as §7, §8
The quantity of LDH was measured in cell culture supernatants and cells from every wells used for the quantification of virus replication including infected and non-infected wells and in presence or not of gemcitabine at the end of the test period according to the manufacturer's protocol. Absorbance at 492 nm (sample) and at 620 nm (background) was recorded 30 min after addition of the reaction mixture. Medium alone served as blank. […]

| SMILES | expression of the early protein antigen T (T antigen) | expression of the late capsid protein VP-1 (VP-1) | pIC50 (BKV (Dunlop strain); Betapolyomavirus hominis, RPTEC, BKV Dunlop, read-out: IC50, inhibition of viral replication) | IC90 (BKV (Dunlop strain); Betapolyomavirus hominis, RPTEC, BKV Dunlop, read-out: IC90, inhibition of viral replication) | inhibitory effect on viral replication, 5 days versus 3 days of treatment (BKV (Dunlop strain); RPTEC) | concentrations repressing BKV replication (BKV (Dunlop strain); summary: two different cellular models, including primary renal epithelial cells) | pIC50 (BKV (Dunlop); Betapolyomavirus hominis, 48 h, BKV Dunlop, two days of treatment, read-out: IC50, inhibition of viral replication) | IC90 (BKV (Dunlop); Betapolyomavirus hominis, 48 h, BKV Dunlop, two days of treatment, read-out: IC90, inhibition of viral replication) | inhibition of viral replication (BKV (Dunlop); concentration as low as 10 nM, in two days) | toxicity (RPTEC primary cells) | effect on cellular growth (LDH) at higher concentrations (RPTEC primary cells; RPTEC, 50 nM range) | effect on cellular growth measured by the intracellular LDH activity (RPTEC primary cells; infected RPTEC, effective antiviral concentrations (up to 10 nM), day 5) | IC50 specificity index (Vero cell line) | concentration range repressing BKV replication (BKV (Dunlop strain); RPTEC, same conditions as gemcitabine) |
| --- | --- | --- | --- | --- | --- | --- | --- | --- | --- | --- | --- | --- | --- | --- |
| Nc1ccn(C2OC(CO)C(O)C2(F)F)c(=O)n1 (centres unmarked) [gemcitabine, 4-amino-1-[3,3-difluoro-4-hydroxy-5-(hydroxymethyl)tetrahydrofuran-2-yl]-1H-pyrimidin-2-one] | inhibited | inhibited | ~8.00 | ~50 nM | higher after 5 days than after 3 days | ~10 nM | 8.70 to 8.82 | 2.5 to 5 nM | totally inhibited | no toxicity was observed | seemed to slow down | could suppress the inhibitory effect of viral infection on the cellular growth | ≥ 10 | – |
| Nc1ccn(C[C@@H](CO)OCP(=O)(O)O)c(=O)n1 [cidofovir] | – | – | – | – | – | – | – | – | – | – | – | – | – | μM range |
